Read-outs that look alike come from different tables or passages of the source.
Columns and labels:
SK-OV-3 cells = test: IC50 assay, inhibition of cell proliferation and growth, SK-OV-3; type: cell-based, human
Procedure: (§1) Cell culture: The human cell lines were propagated under sterile conditions in RPMI 1640 (CellGrow) with 10% fetal bovine serum (Hyclone), 2 mM L-glutamine, and sodium bicarbonate (complete medium) and incubated at 37° C. in HEPA-filtered Sterilcult CO2 tissue culture incubators (Forma) with 5% CO^2 and 95% humidity (Table 1). The murine leukemia cell lines were propagated in Dulbecco's MEM media with 10% equine serum (Hyclone), 2 mM L-glutamine, and sodium bicarbonate (complete medium) and incubated as described. The cells were subcultured twice weekly and used in experiments. The culture was screened for mycoplasma contamination using GeneProbe™ (Fisher) and positive cultures were cured of contaminants over three passages using constant treatment with BM-Cyclin™ antibiotic combination (Boehringer Mannheim). Only cultures confirmed as mycoplasma free were used in testing compounds for anticellular activity.
(§2) The test compounds were stored at 4° C. under light protected conditions. The test compounds were weighed and dissolved in DMSO. The dissolved compounds were then serially diluted in warm medium (RPMI 1640 or Dulbecco's MEM) under constant mixing to minimize precipitation. The positive control drug doxorubicin was diluted in water followed by dilution in media to achieve a final concentration of 200 nM.
(§3) For all experiments, the cells were harvested and centrifuged to remove the media, and suspended in fresh completed medium. Samples were taken to determine cell density. The cell count was determined with a Coulter Model Z1 cell counter and viability was measured with propidium iodide staining followed by analysis on a Coulter EPPICS Elite Flow cytometer. The cell samples sere adjusted with complete medium to a density of 5×10^4/mL for adherent cell lines and 1×10^5/mL for suspension lines. Tissue culture cluster plates (96 well, cat. No. 3595 Costar for adherent human lines and cat No. 25850 Corning for murine leukemias) were seeded with 100 μL cells and incubated as described. Replicate groups of plates were set up for each line to accommodate the exposure options for single agents and combinations. For each dilution 8 wells (100 μL samples of cells) were treated with 100 μL of dosing solution one day after plating. Each cluster plate contained a cell control (8 wells, mock-treated with complete medium), a medium control (3 wells with medium used to subtract out signal generated by media conditions), and an air blank (1 well, for calibrating the plate reader).
(§4) Anticellular effects of the compounds for the adherent cell lines were assessed with neutral red dye. On the day of analysis, the media was removed from sample cell monolayers and replaced with 0.1 mL of neutral red solution (0.5% neutral red, HBSS:RPMI 1640 (1:1), 0.05 M HEPES, pH 7.2). After incubation of the samples at 37° C. for 1 hour the excess dye was removed with blotting and the monolayers were washed twice with 0.85% NaCl solution (0.1 mL per wash). The cell associated dye was extracted by adding 0.2 mL of a 0.1 M NaH2PO4:ethanol (1:1) solution/well followed by incubation for 1 hour at 35° C. The absorbency of neutral red in each monolayer was measured at 550 nm (620 nm reference beam) on a Denley Anthos 2001 microplate reader. The data were transferred via the ARCOM software capture program in Lotus 1-2-3 for processing.
(§5) In assays where technical difficulties due to crystalization of the neutral red occurred the crystal violet staining procedure was employed to measure the amount of cells were left on the plate. Crystal violet staining solution [0.5% crystal violet (w/v), 50% methanol (v/v), 45% saline (v/v), and 5% formalin (v/v)] were prepared on the day of staining. After the media was removed from the sample wells, two drops of crystal violet stain were added to each well and the samples were incubated at ambient temperature for 10 minutes. […]

SK-MEL-5 cells = test: IC50 assay, inhibition of cell proliferation and growth, SK-MEL-5; type: cell-based, human
Procedure: as §1, §2, §3, §4, §5

M14 cells = test: IC50 assay, inhibition of cell proliferation and growth, M14; type: cell-based, human
Procedure: as §1, §2, §3, §4, §5

B16 cells = test: IC50 assay, inhibition of cell proliferation and growth, B16; type: cell-based; settings: B16 murine melanoma cell line, neutral red or crystal violet, read-out: IC50 Concentrations, B16
Procedure: as §1, §2, §3, §4, §5

MCF7 cells = test: IC50 assay, inhibition of cell proliferation and growth, MCF7; type: cell-based, human; settings: Homo sapiens
Procedure: as §1, §2, §3, §4, §5

A549 cells = test: IC50 assay, inhibition of cell proliferation and growth, A549; type: cell-based, human
Procedure: as §1, §2, §3, §4, §5

RPMI 8226 cells = test: IC50 assay, inhibition of cell proliferation and growth, RPMI 8226; type: cell-based; settings: Homo sapiens, RPMI-8226, read-out: IC50 Concentrations, RPM 18226
Procedure: as §1, §2, §3
(§6) Using the procedures described above, concentrations of the Example compounds necessary to inhibit cell proliferation and growth by 50% (1C50 values) were determined in the test cell lines.

COLO 205 cells = test: IC50 assay, inhibition of cell proliferation and growth, COLO 205; type: cell-based, human
Procedure: as §1, §2, §3, §4, §5

P388 cells = test: IC50 assay (XTT), inhibition of cell proliferation and growth, P388; type: cell-based; settings: P388 murine leukemia cell line, XTT dye conversion, read-out: IC50 Concentrations, P388
Procedure: as §1, §2, §3
(§7) Anticellular effects of the murine leukemia cell lines were assessed with the XTT dye conversion assay which is more suited to suspension cultures. On the day of analysis XTT[2,3-bis(2-methoxy-4-nitro-5-sulfophenyl)-5-[(phenylamino)carbenyl]-2H-tetrazolium hydroxide, inner salt, sodium salt (Sigma)] was weighed out and dissolved at 1 mg/mL in media. PMS (phenazine methosulfate) was prepared at 5 mM in PBS (phosphate buffered saline) and stored as a stock solution 4° C. The PMS was mixed with dissolved XTT to a final concentration of 0.025 mM. Sample wells were treated with 50 μL of the XTT solution and the plates were incubated for four hours at 37° C. to allow for conversion into the liquid soluble formazan product. After the incubation period the reaction was stopped by adding 10 μL of 10% SDS solution per well and the wells contents of each plate were mixed by agitation. The absorbancy of formazan in each monolayer was measured at 450 nm (620 nm reference beam) on a Denley Anthos 2001 microplate reader. The data were transferred via the ARCOM software capture program into Lotus 1-2-3 for processing.
as §6

L1210 cells = test: IC50 assay (XTT), inhibition of cell proliferation and growth, L1210; type: cell-based; settings: L1210 murine leukemia cell line; XTT dye conversion; read-out: IC50 Concentrations, L1210
Procedure: as §1, §2, §3, §7, §6

[1] = Homo sapiens, SK-OV-3 ovarian adenocarcinoma cell line, neutral red or crystal violet, read-out: IC50 Concentrations, SK-OV-3
[2] = Homo sapiens, SK-MEL-5 melanoma cell line, neutral red or crystal violet, read-out: IC50 Concentrations, SK MEL-5
[3] = Homo sapiens, M14 melanoma cell line, neutral red or crystal violet, read-out: IC50 Concentrations, M14
[4] = MCF7 breast adenocarcinoma cell line, neutral red or crystal violet, read-out: IC50 Concentrations, MCF 7
[5] = Homo sapiens, A549 bronchogenic cell line, neutral red or crystal violet, read-out: IC50 Concentrations, A 549
[6] = Homo sapiens, SK-OV-3, read-out: IC50 Concentrations, SK-OV-3
[7] = Homo sapiens, SK-MEL-5, read-out: IC50 Concentrations, SK MEL-5
[8] = Homo sapiens, M14, read-out: IC50 Concentrations, M14
[9] = Homo sapiens, COLO 205, read-out: IC50 Concentrations, COLO 205
[10] = MCF7, read-out: IC50 Concentrations, MCF 7
[11] = Homo sapiens, A549, read-out: IC50 Concentrations, A 549
[12] = Homo sapiens, COLO 205 colon adenocarcinoma cell line, neutral red or crystal violet, read-out: IC50 Concentrations, COLO 205

Compound | IC50 (SK-OV-3 cells; [1]) [µM] | IC50 (SK-MEL-5 cells; [2]) [µM] | melting point [°C] | IC50 (M14 cells; [3]) [µM] | IC50 (B16 cells; Mus musculus) [µM] | IC50 (MCF7 cells; [4]) [µM] | IC50 (A549 cells; [5]) [µM] | IC50 (SK-OV-3 cells; [6]) [µM] | IC50 (SK-MEL-5 cells; [7]) [µM] | IC50 (M14 cells; [8]) [µM] | IC50 (COLO 205 cells; [9]) [µM] | IC50 (MCF7 cells; [10]) [µM] | IC50 (A549 cells; [11]) [µM] | IC50 (COLO 205 cells; [12]) [µM] | further results
C=C(C)c1ccccc1NC(=O)c1cc([N+](=O)[O-])ccc1I [Ref. No. 9, N-(2′-Iodo-5′-Nitro-Benzoyl) 2-Isopropenyl Aniline] | > 500 | > 500 | 155 to 158 | > 500 | 462 | 100 | > 500 | – | – | – | – | – | – | – | –
O=C(c1cc([N+](=O)[O-])ccc1I)N(C(=O)c1cc([N+](=O)[O-])ccc1I)C1=NCCS1 [Ref. No. 17] | – | – | – | – | – | – | – | 32 | 42.8 | 37.9 | > 500 | 46.9 | 127 | – | IC50 (RPMI 8226 cells): > 50 µM
NC(=O)c1cc([N+](=O)[O-])ccc1I [Ref. No. 15, 2-Iodo-5-Nitro-Benzamide] | 141 | 314 | 260 to 264 | 36.1 | 134 | – | 37.4 | – | – | – | – | – | – | 33.2 | –
O=C(NCCCCCCNC(=O)c1cc([N+](=O)[O-])ccc1I)c1cc([N+](=O)[O-])ccc1I [Ref. No. 24, 1,6-Di-(2′-Iodo-5′-Nitro-Benzamido)-Hexane] | – | – | – | – | – | – | – | > 500 | > 500 | > 500 | > 500 | > 500 | > 500 | – | IC50 (RPMI 8226 cells): > 500 µM
CN(C)CCNC(=O)c1cc([N+](=O)[O-])ccc1I [Ref. No. 1, (N,N-Dimethylaminoethyl)-2-Iodo-5-Nitro-Benzamide] | – | – | 126 to 128 | – | – | – | – | 404 | 40.1 | 474 | 267 | 133 | 333 | – | –
C=CCNC(=O)c1cc([N+](=O)[O-])ccc1I [Ref. No. 7, N-(Allyl)-2-Iodo-5-Nitro-Benzamide] | 46.4 | 124 | 155 to 158 | 41.8 | 45.1 | – | 134 | – | – | – | – | – | – | 38.5 | IC50 (P388 cells; Mus musculus): 39.4 µM
Cc1csc(N(C(=O)c2cc([N+](=O)[O-])ccc2I)C(=O)c2cc([N+](=O)[O-])ccc2I)n1 [Ref. No. 20] | – | – | – | – | – | – | – | 10.8 | 47.1 | 15.1 | 42.6 | 36.1 | 48.4 | – | IC50 (RPMI 8226 cells): 13.7 µM
O=C(Nc1ncc([N+](=O)[O-])s1)c1cc([N+](=O)[O-])ccc1I [Ref. No. 6, 2-(2′-Iodo-5′-Nitro-Benzamido)-5-Nitro-Thiazole] | – | – | 230 to 234 | – | – | – | – | 130 | 132 | 141 | 117 | 80.9 | 86.5 | – | –
N-(3′-Pyridyl)-2-Iodo-5-Nitrophenyl Hydrazide [Ref. No. 11] | – | – | – | – | – | – | – | – | – | – | – | – | – | – | IC50 (SK-OV-3 cells; SK-OV-3 ovarian adenocarcinoma cell line, neutral red or crystal violet, read-out: IC50 Concentrations, SK-OV-3): 381 µM; IC50 (SK-MEL-5 cells; SK-MEL-5 melanoma cell line, neutral red or crystal violet, read-out: IC50 Concentrations, SK MEL-5): 413 µM; IC50 (M14 cells; M14 melanoma cell line, neutral red or crystal violet, read-out: IC50 Concentrations, M14): 467 µM; IC50 (B16 cells): 129 µM; IC50 (COLO 205 cells; COLO 205 colon adenocarcinoma cell line, neutral red or crystal violet, read-out: IC50 Concentrations, COLO 205): 111 µM; IC50 (P388 cells): > 55.6 µM; IC50 (L1210 cells): ≥ 55.6 µM; IC50 (A549 cells; A549 bronchogenic cell line, neutral red or crystal violet, read-out: IC50 Concentrations, A 549): 387 µM
O=C(Nc1ccc2ccc(=O)oc2c1)c1cc([N+](=O)[O-])ccc1I [Ref. No. 4, 7-(2′-Iodo-5′-Nitro-Benzamido)-2H-1-Benzopyran-2-one] | 395 | > 500 | 273 to 277 | > 500 | 15.9 | > 500 | > 500 | – | – | – | – | – | – | > 500 | –
O=C(Nc1ccc2c(C(F)(F)F)cc(=O)oc2c1)c1cc([N+](=O)[O-])ccc1I [Ref. No. 3, 7-(2′-Iodo-5′-Nitro-Benzamido)-4-Trifluoromethyl-2H-1-Benzopyran-2-one] | – | – | 223 to 227 | – | – | – | – | 44 | 37.7 | 126 | 39.9 | 114 | 363 | – | –
C#CCNC(=O)c1cc([N+](=O)[O-])ccc1I [Ref. No. 8, N-(Propargyl) 2-Iodo-5-Nitro-Benzamide] | 43.4 | 90.4 | 204 to 206 | 49 | 50 | 47.7 | 46.6 | – | – | – | – | – | – | 30.6 | IC50 (P388 cells; Mus musculus): 25.8 µM
O=C(Nc1nccs1)c1cc([N+](=O)[O-])ccc1I [Ref. No. 5, 2-(2′-Iodo-5′-Nitro-Benzamido)-Thiazole] | 32.8 | 46.2 | 210 to 213 | 17.4 | 30.8 | 27 | 48.6 | – | – | – | – | – | – | 13.4 | –
NC(=O)c1cc(N)ccc1I [Ref. No. 13] | > 500 | > 500 | – | > 500 | 500 | > 500 | > 500 | – | – | – | – | – | – | > 500 | IC50 (P388 cells; Mus musculus): 439 µM
CCN(CC)CCNC(=O)c1cc([N+](=O)[O-])ccc1I [Ref. No. 2, (N,N-Diethylaminoethyl)-2-Iodo-5-Nitro-Benzamide] | – | – | 124 to 126 | – | – | – | – | – | – | – | 343 | 128 | 333 | – | –
